From ChEMBL document CHEMBL5678818, “Discovery of potent SOS1 inhibitors that block RAS activation via disruption of the RAS-SOS1 interaction” (Proc Natl Acad Sci U S A, 2019)

Legend:
[1] = target: T1, Serine/threonine-protein kinase Sgk3 (Homo sapiens) (UniProt Q96BR1); assay: Inhibition of SGK3 (unknown origin) assessed as residual activity at 1000 nM by KINOMEscan analysis relative to control
T1 sequence (whole entry): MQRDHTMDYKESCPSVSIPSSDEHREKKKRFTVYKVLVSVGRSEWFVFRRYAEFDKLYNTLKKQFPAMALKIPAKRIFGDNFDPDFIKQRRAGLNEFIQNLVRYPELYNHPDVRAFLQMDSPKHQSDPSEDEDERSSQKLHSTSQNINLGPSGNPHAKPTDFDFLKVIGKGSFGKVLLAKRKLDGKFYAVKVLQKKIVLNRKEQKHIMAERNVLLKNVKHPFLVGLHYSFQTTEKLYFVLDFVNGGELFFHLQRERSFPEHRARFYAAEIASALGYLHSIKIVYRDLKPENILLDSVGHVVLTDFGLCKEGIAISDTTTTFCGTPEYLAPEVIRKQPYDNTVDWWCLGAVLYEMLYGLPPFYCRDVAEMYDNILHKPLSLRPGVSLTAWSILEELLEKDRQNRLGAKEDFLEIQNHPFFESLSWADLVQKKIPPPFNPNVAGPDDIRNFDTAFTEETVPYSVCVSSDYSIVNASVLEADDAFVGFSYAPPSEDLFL

[2] = target: T2, Serine/threonine-protein kinase TNNI3K (Homo sapiens) (UniProt Q59H18); assay: Inhibition of TNNI3K (unknown origin) assessed as residual activity at 1000 nM by KINOMEscan analysis relative to control
T2 sequence (whole entry): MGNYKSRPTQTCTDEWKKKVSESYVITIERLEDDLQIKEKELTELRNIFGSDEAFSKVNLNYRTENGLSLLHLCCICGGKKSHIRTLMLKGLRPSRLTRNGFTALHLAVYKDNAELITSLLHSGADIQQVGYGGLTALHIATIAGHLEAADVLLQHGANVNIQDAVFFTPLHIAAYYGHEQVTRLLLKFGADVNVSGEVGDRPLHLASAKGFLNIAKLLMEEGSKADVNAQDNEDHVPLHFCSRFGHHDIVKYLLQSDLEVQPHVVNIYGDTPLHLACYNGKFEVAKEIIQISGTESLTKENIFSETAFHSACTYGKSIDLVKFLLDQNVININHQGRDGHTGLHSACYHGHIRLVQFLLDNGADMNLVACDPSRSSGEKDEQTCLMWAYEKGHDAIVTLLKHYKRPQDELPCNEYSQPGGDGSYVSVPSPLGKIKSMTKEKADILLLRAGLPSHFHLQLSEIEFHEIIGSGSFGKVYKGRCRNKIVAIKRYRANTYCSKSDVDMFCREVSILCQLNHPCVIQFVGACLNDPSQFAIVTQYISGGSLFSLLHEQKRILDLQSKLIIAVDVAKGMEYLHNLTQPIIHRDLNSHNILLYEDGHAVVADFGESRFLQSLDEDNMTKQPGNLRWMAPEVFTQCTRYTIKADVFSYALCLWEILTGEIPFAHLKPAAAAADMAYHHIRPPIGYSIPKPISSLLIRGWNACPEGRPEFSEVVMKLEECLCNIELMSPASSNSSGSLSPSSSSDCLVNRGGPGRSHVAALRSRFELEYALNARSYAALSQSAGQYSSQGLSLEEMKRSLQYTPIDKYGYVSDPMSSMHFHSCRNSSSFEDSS

[3] = target: T3, Serine/threonine-protein kinase 36 (Homo sapiens) (UniProt Q9NRP7); assay: Inhibition of STK36 (unknown origin) assessed as residual activity at 1000 nM by KINOMEscan analysis relative to control
T3 sequence (whole entry): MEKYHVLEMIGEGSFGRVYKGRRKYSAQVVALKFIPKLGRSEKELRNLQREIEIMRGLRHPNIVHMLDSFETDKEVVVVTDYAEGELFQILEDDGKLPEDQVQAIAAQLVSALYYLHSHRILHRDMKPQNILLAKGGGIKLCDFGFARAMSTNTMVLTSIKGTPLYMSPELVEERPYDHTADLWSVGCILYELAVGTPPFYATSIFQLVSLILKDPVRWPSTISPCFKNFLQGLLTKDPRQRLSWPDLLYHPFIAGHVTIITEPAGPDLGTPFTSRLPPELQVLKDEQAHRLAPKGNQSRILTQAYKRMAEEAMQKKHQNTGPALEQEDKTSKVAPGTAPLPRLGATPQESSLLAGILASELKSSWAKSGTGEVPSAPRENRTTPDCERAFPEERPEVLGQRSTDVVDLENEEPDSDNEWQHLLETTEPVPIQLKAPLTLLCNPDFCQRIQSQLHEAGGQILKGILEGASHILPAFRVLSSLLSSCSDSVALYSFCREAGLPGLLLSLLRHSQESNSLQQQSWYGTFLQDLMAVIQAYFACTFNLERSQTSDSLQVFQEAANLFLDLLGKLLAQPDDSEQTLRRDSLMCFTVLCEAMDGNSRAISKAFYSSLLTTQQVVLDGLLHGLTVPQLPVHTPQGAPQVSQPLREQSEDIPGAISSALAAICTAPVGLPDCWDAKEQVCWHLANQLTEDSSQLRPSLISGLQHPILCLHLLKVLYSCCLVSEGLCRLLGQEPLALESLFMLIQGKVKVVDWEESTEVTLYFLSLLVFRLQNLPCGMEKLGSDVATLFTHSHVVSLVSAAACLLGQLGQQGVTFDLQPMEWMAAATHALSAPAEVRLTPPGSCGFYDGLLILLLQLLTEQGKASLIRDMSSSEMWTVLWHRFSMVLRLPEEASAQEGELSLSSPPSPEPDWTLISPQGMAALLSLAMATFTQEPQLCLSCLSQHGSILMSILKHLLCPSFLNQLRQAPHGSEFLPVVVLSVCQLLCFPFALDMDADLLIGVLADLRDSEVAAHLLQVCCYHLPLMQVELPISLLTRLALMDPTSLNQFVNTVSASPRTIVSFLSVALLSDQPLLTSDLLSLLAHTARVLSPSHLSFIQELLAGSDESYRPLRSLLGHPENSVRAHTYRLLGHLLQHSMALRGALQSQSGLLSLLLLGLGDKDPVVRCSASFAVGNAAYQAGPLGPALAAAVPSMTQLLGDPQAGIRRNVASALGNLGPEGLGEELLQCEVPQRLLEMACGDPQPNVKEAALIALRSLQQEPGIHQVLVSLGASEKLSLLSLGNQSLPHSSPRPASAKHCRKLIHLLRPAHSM

[4] = target: Insulin-like growth factor 1 receptor (Homo sapiens) (UniProt P08069); assay: Inhibition of IGF1R (unknown origin) assessed as residual activity at 1000 nM by KINOMEscan analysis relative to control
[5] = target: Ribosomal protein S6 kinase beta-1 (Homo sapiens) (UniProt P23443); assay: Inhibition of S6K1 (unknown origin) assessed as residual activity at 1000 nM by KINOMEscan analysis relative to control
Ribosomal protein S6 kinase beta-1 (Homo sapiens), sequence (P23443 whole entry, looked up): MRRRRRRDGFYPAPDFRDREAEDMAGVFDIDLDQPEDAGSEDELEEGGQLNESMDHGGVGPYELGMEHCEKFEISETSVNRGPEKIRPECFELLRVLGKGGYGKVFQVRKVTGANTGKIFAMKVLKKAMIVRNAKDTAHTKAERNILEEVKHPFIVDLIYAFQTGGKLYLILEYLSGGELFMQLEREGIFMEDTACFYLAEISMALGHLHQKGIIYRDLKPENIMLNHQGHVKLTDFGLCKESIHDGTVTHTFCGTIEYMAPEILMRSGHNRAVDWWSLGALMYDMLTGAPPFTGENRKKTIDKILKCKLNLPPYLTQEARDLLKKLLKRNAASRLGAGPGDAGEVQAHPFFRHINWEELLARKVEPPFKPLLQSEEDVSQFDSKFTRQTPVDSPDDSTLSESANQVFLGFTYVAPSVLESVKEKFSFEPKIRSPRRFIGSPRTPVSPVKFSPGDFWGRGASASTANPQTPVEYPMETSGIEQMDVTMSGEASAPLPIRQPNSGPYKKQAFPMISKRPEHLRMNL

Insulin-like growth factor 1 receptor (Homo sapiens), sequence (P08069 31-736 limits assumed): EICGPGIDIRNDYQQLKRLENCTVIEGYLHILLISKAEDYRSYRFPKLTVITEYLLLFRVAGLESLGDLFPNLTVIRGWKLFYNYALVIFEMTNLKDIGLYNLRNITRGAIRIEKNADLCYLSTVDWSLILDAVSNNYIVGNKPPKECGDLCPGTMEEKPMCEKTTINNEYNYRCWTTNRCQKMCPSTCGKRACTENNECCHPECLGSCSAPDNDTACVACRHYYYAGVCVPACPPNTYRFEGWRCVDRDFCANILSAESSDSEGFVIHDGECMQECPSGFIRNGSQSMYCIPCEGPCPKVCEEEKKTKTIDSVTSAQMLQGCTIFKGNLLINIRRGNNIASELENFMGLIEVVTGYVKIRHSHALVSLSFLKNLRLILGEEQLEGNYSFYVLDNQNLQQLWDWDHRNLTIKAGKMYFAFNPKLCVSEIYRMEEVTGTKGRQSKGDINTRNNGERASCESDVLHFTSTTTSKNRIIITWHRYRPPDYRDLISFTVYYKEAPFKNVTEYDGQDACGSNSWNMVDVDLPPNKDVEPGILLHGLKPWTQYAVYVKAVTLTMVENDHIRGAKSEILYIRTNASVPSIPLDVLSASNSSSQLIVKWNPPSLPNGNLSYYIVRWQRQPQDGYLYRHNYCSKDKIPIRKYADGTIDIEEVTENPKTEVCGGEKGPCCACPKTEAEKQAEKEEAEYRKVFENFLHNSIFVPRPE
Insulin-like growth factor 1 receptor (Homo sapiens), sequence (P08069 741-1367 limits assumed): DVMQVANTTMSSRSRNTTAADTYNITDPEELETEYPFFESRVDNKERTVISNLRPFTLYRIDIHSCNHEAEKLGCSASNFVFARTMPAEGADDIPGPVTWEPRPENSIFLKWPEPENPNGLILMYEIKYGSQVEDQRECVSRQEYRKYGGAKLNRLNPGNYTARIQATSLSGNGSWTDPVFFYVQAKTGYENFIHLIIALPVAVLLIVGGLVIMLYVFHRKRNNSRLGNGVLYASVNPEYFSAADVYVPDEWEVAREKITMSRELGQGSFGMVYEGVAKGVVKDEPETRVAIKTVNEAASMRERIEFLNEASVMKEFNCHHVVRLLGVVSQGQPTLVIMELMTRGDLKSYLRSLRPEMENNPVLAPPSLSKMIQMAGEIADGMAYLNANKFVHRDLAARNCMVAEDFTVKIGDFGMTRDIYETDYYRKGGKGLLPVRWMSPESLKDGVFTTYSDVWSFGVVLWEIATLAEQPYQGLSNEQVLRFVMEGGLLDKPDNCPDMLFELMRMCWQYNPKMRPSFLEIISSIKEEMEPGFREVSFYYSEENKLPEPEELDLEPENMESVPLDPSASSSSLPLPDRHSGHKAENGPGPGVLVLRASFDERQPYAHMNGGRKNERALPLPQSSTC

| SMILES | Activity [1] | Activity [2] | Activity [3] | Activity [4] | Activity [5] |
| --- | --- | --- | --- | --- | --- |
| COc1cc2nc(C)nc(N[C@H](C)c3cccc(-c4cn[nH]c4)c3)c2cc1OC | 90% | 96% | 100% | 100% | 78% |
| COc1cc2ncnc(N[C@H](C)c3cccc4ccccc34)c2cc1OC | 100% | 100% | 100% | 100% | 91% |
